# Patent US20200368223A1, “METHODS FOR INHIBITING PHOSPHATE TRANSPORT” (Ardelyx, Inc., priority 2019, published 2020)
# Entries after “also recorded” stand apart in the source; their conditions may differ.
# Columns and labels:
# [1] = test system: adenine-induced uremic rat model; test: Adenine-induced uremic rat model; type: in vivo
# Description: The effects of Cpd 002(were tested in an adenine-induced uremic rat model. Rats were fed a diet including 0.75% adenine and 1.2% phosphorus during the nephritis induction phase. The basal diet during the treatment phase was normal chow including 0.3% adenine and 0.6% phosphorus for 2 weeks. The rats were pair-fed the first 5 days (groups 1 and 2 to group 3, 4 days apart), and fed ad libitum afterwards. The treatment groups were as follows: vehicle, n=10; Cpd 002, 2 mg/kg/day drug-in-chow, n=10; and Cpd 002, 5 mg/kg/day drug-in-chow, n=12. Weekly measurements were taken for serum markers and kidney function.
# [2] = test system: uremic rat model of CKD featuring vascular calcification; test: Rat model of uremia-associated vascular calcification (5/6th nephrectomy, calcitriol, 0.9% P diet); type: in vivo
# Description: Chronic kidney disease (CKD) has multiple pathogenic mechanisms, and advanced CKD is often characterized by disordered mineral metabolism (e.g., hyperphosphatemia, hypercalcemia) and vascular calcification.
# Sprague Dawley (SD) rats = test: Combination treatment with tenapanor and sevelamer in rats (urinary and renal phosphorous and sodium, BLISS model)
# Description: A total of 48, approximately 8-week-old male Sprague Dawley (SD) rats (Envigo, Livermore, Calif.), weighing approximately 250 g on arrival, were housed 2-per cage in micro-isolator cages for a 48-hr acclimation period prior to being assigned to study groups. Animals were housed in a temperature (65-75° F.) and humidity (35-55%) controlled facility utilizing a reversed 12-hour light/dark cycle (7 AM-7 PM dark cycle). […] Body weights were recorded at study initiation and daily for the remainder of the study. Animals were maintained in accordance with the Guide for the Care and Use of Laboratory Animals (National Research Council, 2011). The study was conducted under a protocol approved by the Institutional Animal Care and Use Committee.
# Rats were randomly assigned to one of eight groups (n=6/group) provided with a diet containing varying amounts of sevelamer (0-3% w/w) and were dosed by oral gavage twice daily with vehicle (0.01% Tween80) or tenapanor (0.15 mg/kg) for 11-consecutive days according to the study assignments shown in the following table.
# Rats dosed orally with vehicle and provided diet without sevelamer (Group 1) served as the control group. Treatment arms included groups treated with tenapanor alone (0.15 mg/kg, bid), sevelamer alone (0.75, 1,5 or 3% w/w in chow) and the combination of tenapanor (0.15 mg/kg, bid) with each dose level of sevelamer (0.75, 1,5 or 3% w/w in chow). Animals were dosed in their home cages while pair-housed for the first five treatment days. On treatment day 6, all animals were housed individually in metabolic cages for the remainder of the study and continued to be provided ad libitum access to diet containing 0-3% sevelamer w/w and dosed twice daily with vehicle or tenapanor. Following two days acclimation to the metabolic cages, 24-hour food intake, water intake and urinary volume were measured and recorded for the final four treatment days. Urinary sodium and phosphorous concentration was measured by ion chromatography (IC). 24-hour urinary sodium and phosphorous excretion were calculated by multiplying ion concentration by 24-hour urine volume. Urinary ion excretion was also normalized to daily dietary ion intake to account for daily fluctuations in food intake.
# Dosing solutions containing tenapanor (Ardelyx, Fremont Calif.) at a concentration of 0.03 mg/mL were made fresh weekly by adding the appropriate weight of tenapanor to 0.1% Tween 80 vehicle. The dose volume was 5 mL/kg for all groups.
# Animals were dosed twice daily (bid) orally (po), immediately prior to lights out (7 AM) and during the middle of dark cycle (2 PM) with a standard gavage needle (38 mm, 20 G). Animals were removed from the holding or metabolic cages for dosing and then immediately returned to the cage of origin.
# Urine samples were analyzed for sodium and phosphorous content on an ion chromatography system (Thermo Fisher Scientific ICS-3000 or ICS-5000+) coupled with conductivity detectors.
# [3] = haemodialysis patients; cited from earlier work
# [4] = In vitro dissolution of CPD002 formulations; type: physicochemical; details: CPD002 formulations at high pH
# [5] = test system: dietary salt-induced, partial renal ablation model of CKD; test: Renal insufficiency with high salt feed in nephrectomized rats; type: in vivo, rat
# Description: The effects of Cpd 002 were tested in a dietary salt-induced, partial renal ablation model of CKD.
# rats = test: Urinary excretion of phosphate and calcium in rats; type: in vivo, rat; details: 16 hours overnight urine
# Description: The activity of compound 002 was tested for its effects on phosphorus and calcium levels in the urine of rats. Rats were dosed according to the schedule in Table E7.
# The rats were kept for 16 hours overnight (in the dark, the typical feeding period) in individual metabolic cages, and urine was collected the following morning for analysis of phosphate and calcium levels. The study design is shown WO2014169094.
# [6] = early time points, Cpd 002 2 or 5 mg/kg/day drug-in-chow
# [7] = week three, at the highest dose
# [8] = Cpd 002 0.065 mg/g chow vs vehicle diet, listed as Cpd 002
# [9] = endpoint day 27, Cpd 002 0.065 mg/g chow vs vehicle diet
# [10] = endpoint, Cpd 002 0.065 mg/g chow vs vehicle diet
# [11] = tenapanor 0.15 mg/kg po bid alone, four day collection period, relative to control group 1
smiles,measurement,setting,value
"CN1Cc2c(Cl)cc(Cl)cc2[C@H](c2cccc(S(=O)(=O)NCCOCCOCCNC(=O)NCCCCNC(=O)NCCOCCOCCNS(=O)(=O)c3cccc([C@@H]4CN(C)Cc5c(Cl)cc(Cl)cc54)c3)c2)C1 [Tenapanor, tenapanor]",serum creatinine,[1]; [6],reduced
same,serum phosphorus,[1]; [6],reduced
same,heart remodeling (organ weight),[1]; week three,trend towards lesser
same,kidney remodeling (organ weight),[1]; week three,trend towards lesser
same,heart calcification,[1]; [7],trend towards reduced
same,kidney calcification,[1]; [7],trend towards reduced
same,hypertrophy of the heart (endpoint heart weight),[2]; [8],lessened; also recorded: reduce
same,hypertrophy of the kidney remnant (endpoint kidney remnant weight),[2]; [8],lessened; also recorded: reduce
same,plasma FGF-23,[2]; [9],reduced
same,plasma creatinine,[2]; [9],reduced
same,plasma phosphorus,"[2]; endpoint day 27, Cpd 002 0.065 mg/g chow vs vehicle diet, listed as Cpd 002",reduced; also recorded: anti-hyperphosphatemic effects
same,calcium in the stomach (soft tissue calcification),[2]; [10],reduced
same,phosphorus in the stomach (soft tissue calcification),[2]; [10],reduced
same,plasma aldosterone levels,[2]; [10],increase
same,vascular calcification as measured by aortic mineral content,"[2]; endpoint, Cpd 002 0.065 mg/g chow vs vehicle diet, listed as Cpd 002",reduce
same,moribundity,[2]; treatment group vs vehicle,decreased
same,mortality outcome,[2]; treatment group vs vehicle,trend toward improved mortality outcome
same,urinary sodium excretion,"Sprague Dawley (SD) rats; single agent, compared to vehicle control",significantly decreased
same,24-hr urinary phosphorous excretion,"Sprague Dawley (SD) rats; single agent, compared to vehicle control, final four days of treatment",significantly decreased
same,% Reduction Urinary Phosphorous Excretion When Dosed Alone,Sprague Dawley (SD) rats; [11],33.2%
same,% Reduction Urinary Sodium Excretion When Dosed Alone,Sprague Dawley (SD) rats; [11],82.1%
same,urinary sodium excretion,"Sprague Dawley (SD) rats; tenapanor co-administered with all doses of sevelamer, compared to control",significantly reduced
same,serum phosphate levels,[3],significantly lower
same,in vitro dissolution profile,[4],slower and/or incomplete dissolution
same,albuminuria,[5],improved
same,blood pressure,[5],improved
same,fluid overload,[5],improved
same,heart hypertrophy,[5],improved
same,kidney hypertrophy,[5],improved
same,phosphorus urinary excretion,[5],significantly reduced
same,urine phosphorus mass relative to the vehicle-only control,rats; Cpd 002 0.1-3.0 mg/kg,reduced
same,urine phosphorus mass relative to 48 mg/kg Renvela,rats; increasing dosages of Cpd 002,significantly reduced
